Reference: PubChem BioAssay (NCI)
“And” between values parts separate entries of the source, which are not always exact repeats. Equal values may be shown once.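 The compound was tested at five concentrations on cells cultured in 96-well plates, with a 48-hour exposure period. The concentration for full growth arrest is given as TGI.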

Experiments:
Test in all cases: inhibition of tumour cell growth, NCI panel, 48 h
SNB-19 CNS = test system: SNB-19 CNS
SF-295 CNS = test system: SF-295 CNS
OVCAR-3 ovarian = test system: OVCAR-3 ovarian
786-0 renal = test system: 786-0 renal
HCT-15 colon = test system: HCT-15 colon
UACC-62 melanoma = test system: UACC-62 melanoma
SK-MEL-28 melanoma = test system: SK-MEL-28 melanoma
EKVX NSCLC = test system: EKVX NSCLC
LXFL 529 NSCLC = test system: LXFL 529 NSCLC
SNB-75 CNS = test system: SNB-75 CNS
HOP-92 NSCLC = test system: HOP-92 NSCLC
LOX IMVI melanoma = test system: LOX IMVI melanoma
KM20L2 colon = test system: KM20L2 colon
HL-60(TB) leukemia = test system: HL-60(TB) leukemia
SK-MEL-2 melanoma = test system: SK-MEL-2 melanoma
HT29 colon = test system: HT29 colon
COLO 205 colon = test system: COLO 205 colon
DLD-1 colon = test system: DLD-1 colon
ACHN renal = test system: ACHN renal
DMS 273 small cell lung = test system: DMS 273 small cell lung
HCC-2998 colon = test system: HCC-2998 colon
CCRF-CEM leukemia = test system: CCRF-CEM leukemia
M14 melanoma = test system: M14 melanoma
MOLT-4 leukemia = test system: MOLT-4 leukemia
A549 NSCLC = test system: A549 NSCLC
OVCAR-5 ovarian = test system: OVCAR-5 ovarian
UACC-257 melanoma = test system: UACC-257 melanoma
RPMI-8226 leukemia = test system: RPMI-8226 leukemia
NCI-H460 lung = test system: NCI-H460 lung
RXF 393 renal = test system: RXF 393 renal
TK-10 renal = test system: TK-10 renal
SNB-78 CNS = test system: SNB-78 CNS
MALME-3M melanoma = test system: MALME-3M melanoma
HOP-62 NSCLC = test system: HOP-62 NSCLC
M19-MEL melanoma = test system: M19-MEL melanoma
K-562 leukemia = test system: K-562 leukemia
SW-620 colon = test system: SW-620 colon
SN12C renal = test system: SN12C renal
IGROV1 ovarian = test system: IGROV1 ovarian
SK-OV-3 ovarian = test system: SK-OV-3 ovarian
OVCAR-8 ovarian = test system: OVCAR-8 ovarian
UO-31 renal = test system: UO-31 renal
CAKI-1 renal = test system: CAKI-1 renal
SK-MEL-5 melanoma = test system: SK-MEL-5 melanoma
NCI-H23 lung = test system: NCI-H23 lung
DMS 114 small cell lung = test system: DMS 114 small cell lung
OVCAR-4 ovarian = test system: OVCAR-4 ovarian
KM12 colon = test system: KM12 colon
NCI-H522 lung = test system: NCI-H522 lung
HOP-18 NSCLC = test system: HOP-18 NSCLC
U251 CNS = test system: U251 CNS
HCT-116 colon = test system: HCT-116 colon
A498 renal = test system: A498 renal
SF-268 CNS = test system: SF-268 CNS
NCI-H226 lung = test system: NCI-H226 lung
SF-539 CNS = test system: SF-539 CNS
SR leukemia = test system: SR leukemia

Q: Which results are given for C#CCC(O)c1ccccc1C(O)CC#C (centres undefined)?
A: TGI (SNB-19 CNS): > 100 µM; TGI (SF-295 CNS): > 100 µM; TGI (OVCAR-3 ovarian): > 100 µM; TGI (786-0 renal): > 100 µM; TGI (HCT-15 colon): > 100 µM; TGI (UACC-62 melanoma): > 100 µM; TGI (SK-MEL-28 melanoma): > 100 µM; TGI (EKVX NSCLC): > 100 µM; TGI (LXFL 529 NSCLC): > 100 µM; TGI (SNB-75 CNS): > 100 µM; TGI (HOP-92 NSCLC): > 100 µM; TGI (LOX IMVI melanoma): > 100 µM; TGI (KM20L2 colon): > 100 µM; TGI (HL-60(TB) leukemia): > 100 µM; TGI (SK-MEL-2 melanoma): > 100 µM; TGI (HT29 colon): > 100 µM; TGI (COLO 205 colon): > 100 µM; TGI (DLD-1 colon): > 100 µM; TGI (ACHN renal): > 100 µM; TGI (DMS 273 small cell lung): > 100 µM; TGI (HCC-2998 colon): > 100 µM; TGI (CCRF-CEM leukemia): > 100 µM; TGI (M14 melanoma): > 100 µM; TGI (MOLT-4 leukemia): > 100 µM; TGI (A549 NSCLC): > 100 µM; TGI (OVCAR-5 ovarian): > 100 µM; TGI (UACC-257 melanoma): > 100 µM; TGI (RPMI-8226 leukemia): > 100 µM; TGI (NCI-H460 lung): > 100 µM; TGI (RXF 393 renal): 95.2 µM; TGI (TK-10 renal): > 100 µM; TGI (SNB-78 CNS): > 100 µM; TGI (MALME-3M melanoma): > 100 µM; TGI (HOP-62 NSCLC): > 100 µM; TGI (M19-MEL melanoma): > 100 µM; TGI (K-562 leukemia): > 100 µM; TGI (SW-620 colon): > 100 µM; TGI (SN12C renal): > 100 µM; TGI (IGROV1 ovarian): > 100 µM; TGI (SK-OV-3 ovarian): > 100 µM; TGI (OVCAR-8 ovarian): > 100 µM; TGI (UO-31 renal): > 100 µM; TGI (CAKI-1 renal): > 100 µM; TGI (SK-MEL-5 melanoma): > 100 µM; TGI (NCI-H23 lung): > 100 µM; TGI (DMS 114 small cell lung): > 100 µM; TGI (OVCAR-4 ovarian): > 100 µM; TGI (KM12 colon): > 100 µM; TGI (NCI-H522 lung): > 100 µM

Q: Which results are given for Cc1ccc(Oc2ccc(C(=O)c3cccc(C(=O)c4ccc(Oc5ccc(C)cc5)cc4)n3)cc2)cc1?
A: TGI (SNB-19 CNS): > 100 µM; TGI (SF-295 CNS): > 100 µM; TGI (OVCAR-3 ovarian): > 100 µM; TGI (786-0 renal): > 100 µM; TGI (HOP-18 NSCLC): > 100 µM; TGI (HCT-15 colon): > 100 µM; TGI (UACC-62 melanoma): > 100 µM; TGI (SK-MEL-28 melanoma): > 100 µM; TGI (EKVX NSCLC): > 100 µM; TGI (U251 CNS): > 100 µM; TGI (LXFL 529 NSCLC): > 100 µM; TGI (SNB-75 CNS): > 100 µM; TGI (HCT-116 colon): > 100 µM; TGI (HOP-92 NSCLC): > 100 µM; TGI (LOX IMVI melanoma): > 100 µM; TGI (KM20L2 colon): > 100 µM; TGI (HL-60(TB) leukemia): > 100 µM; TGI (A498 renal): > 100 µM; TGI (SK-MEL-2 melanoma): > 100 µM; TGI (HT29 colon): > 100 µM; TGI (COLO 205 colon): > 100 µM; TGI (DLD-1 colon): > 100 µM; TGI (ACHN renal): > 100 µM; TGI (DMS 273 small cell lung): > 100 µM; TGI (HCC-2998 colon): > 100 µM; TGI (CCRF-CEM leukemia): > 100 µM; TGI (M14 melanoma): > 100 µM; TGI (MOLT-4 leukemia): > 100 µM; TGI (A549 NSCLC): > 100 µM; TGI (OVCAR-5 ovarian): > 100 µM; TGI (UACC-257 melanoma): > 100 µM; TGI (NCI-H460 lung): > 100 µM; TGI (RXF 393 renal): > 100 µM; TGI (TK-10 renal): > 100 µM; TGI (SF-268 CNS): > 100 µM; TGI (SNB-78 CNS): > 100 µM; TGI (MALME-3M melanoma): > 100 µM; TGI (HOP-62 NSCLC): > 100 µM; TGI (K-562 leukemia): > 100 µM; TGI (SW-620 colon): > 100 µM; TGI (NCI-H226 lung): > 100 µM; TGI (SN12C renal): > 100 µM; TGI (IGROV1 ovarian): > 100 µM; TGI (SK-OV-3 ovarian): > 100 µM; TGI (OVCAR-8 ovarian): > 100 µM; TGI (SF-539 CNS): > 100 µM; TGI (UO-31 renal): > 100 µM; TGI (CAKI-1 renal): > 100 µM; TGI (SK-MEL-5 melanoma): > 100 µM; TGI (SR leukemia): > 100 µM; TGI (NCI-H23 lung): > 100 µM; TGI (DMS 114 small cell lung): > 100 µM; TGI (OVCAR-4 ovarian): > 100 µM; TGI (KM12 colon): > 100 µM; TGI (NCI-H522 lung): > 100 µM

Q: COc1cc2c(cc1OC)-c1cc(OC)c(OC)cc1[C@H]1CN3CCC[C@@]3(O)C=C21 was tested. Which TGI (HOP-18 NSCLC) did it give?
A: Its TGI is 0.000164 µM.

Q: What about the TGI (HCT-116 colon) of the same compound?
A: Its TGI is 0.0101 µM.

Q: And the TGI (HL-60(TB) leukemia)?
A: Its TGI is under 0.0001 µM.

Q: What about the TGI (SK-MEL-2 melanoma) of the same compound?
A: Its TGI is under 0.0001 µM.

Q: And the TGI (COLO 205 colon)?
A: The TGI was under 0.0001 µM.

Q: And the TGI (ACHN renal)?
A: The TGI was 0.000787 µM.

Q: And the TGI (DMS 273 small cell lung)?
A: The TGI was 0.000208 µM.

Q: What about the TGI (HCC-2998 colon) of the same compound?
A: The TGI was 0.0437 µM.

Q: What about the TGI (M14 melanoma) of the same compound?
A: The TGI was 0.000105 µM.

Q: What about the TGI (A549 NSCLC) of the same compound?
A: The TGI was 0.106 µM and 0.414 µM.

Q: What about the TGI (RXF 393 renal) of the same compound?
A: Its TGI is 0.0126 µM.

Q: What about the TGI (TK-10 renal) of the same compound?
A: Its TGI is 0.161 µM.

Q: What about the TGI (SNB-78 CNS) of the same compound?
A: Its TGI is 0.00164 µM.

Q: What about the TGI (MALME-3M melanoma) of the same compound?
A: Its TGI is under 0.0001 µM.

Q: What about the TGI (M19-MEL melanoma) of the same compound?
A: The TGI was 0.000362 µM.

Q: And the TGI (K-562 leukemia)?
A: Its TGI is 0.101 µM and 0.0521 µM.

Q: What about the TGI (NCI-H226 lung) of the same compound?
A: Its TGI is 0.00253 µM.

Q: And the TGI (CAKI-1 renal)?
A: Its TGI is 0.000403 µM.

Q: And the TGI (SK-MEL-5 melanoma)?
A: The TGI was 0.000139 µM.

Q: What about the TGI (SR leukemia) of the same compound?
A: Its TGI is under 0.0001 µM.

Q: What about the TGI (NCI-H23 lung) of the same compound?
A: The TGI was 0.000267 µM.

Q: What about the TGI (DMS 114 small cell lung) of the same compound?
A: Its TGI is 0.00117 µM.

Q: What about the TGI (OVCAR-4 ovarian) of the same compound?
A: The TGI was 0.0032 µM and 0.0117 µM.

Q: What about the TGI (KM12 colon) of the same compound?
A: Its TGI is 0.00316 µM and 0.0152 µM.

Q: And the TGI (NCI-H522 lung)?
A: Its TGI is under 0.0001 µM.
